“Also recorded” adds a separate entry of the source.
Legend:
[1] = system: Lewis lung carcinoma (LLC); experiment: Spontaneous LLC metastasis model (primary tumor resection); format: in vivo, mouse; conditions: for spontaneous LLC lung metastasis / spontaneous LLC liver, kidney and lymph node metastasis: after LLC resection, 12 days, t-AUCB and TUPS 10 mg/kg/day; for spontaneous LLC lung metastasis: 14,15-EET and 14,15-DHET 15 μg/kg/day; for spontaneous LLC liver, kidney and lymph node metastasis: 14,15-EET 15 μg/kg/day, vehicle-treated mice do not develop liver metastasis; for 14,15-EET-induced spontaneous LLC (lung) metastasis: EET antagonist 0.21 mg/mouse co-administered with 14,15-EET 15 μg/kg/day following LLC resection, day 12
Excerpt: The role of non-cell autonomous effects of endothelial-derived EETs in tumor metastasis was unknown.

mice [2] = experiment: Liver regeneration following partial hepatectomy; format: in vivo, mouse; conditions: day 4 following partial hepatectomy, 14,15-EET 15 μg/kg/day via minipump, TUPS 10 mg/kg/day; for liver regeneration: vs vehicle/control; for increase in liver regeneration (liver/body weight ratio): vs vehicle
Excerpt: There were no significant differences in liver/body weight ratio at baseline or following sham operation (FIG. 6D). […] Endothelial cell proliferation was increased in the Tie2-CYP2C8-Tr mice when compared to WT mice (FIG. 6D).

VEGF production = experiment: β-galactosidase staining of LLC tumors in VEGF-LacZ-Tr mice; format: in vivo, mouse; conditions: systemic 14,15-EET 15 μg/kg/day, absent in non-treated size-matched tumors
Excerpt: However, analysis of LLC tumors in VEGF-LacZ-Tr mice in which the LacZ reporter was introduced into the VEGF locus (A. S. Maharaj, M. Saint-Geniez, A. E. Maldonado, P. A. D'Amore, Am J Pathol 168, 639 2006).

LLC tumor cells [3] = experiment: In vitro tumor cell production of VEGF, LLC; format: cell-based, mouse; conditions: 14,15-EET
[4] = system: Lewis lung carcinoma (LLC); experiment: Primary LLC tumor growth; format: in vivo, mouse; conditions: for primary LLC tumor growth: systemic, 14,15-EET 15 μg/kg/day minipump, t-AUCB in LLC-GFP tumors, 13 days of treatment, 14,15-EEZE 0.21 mg/mouse, established tumors
mice [5] = experiment: Endometriosis (ectopically implanted uterine tissue); format: in vivo, mouse; conditions: systemic 14,15-EET 15 μg/kg/day via minipump
B16F10 tumor cells = experiment: In vitro tumor cell production of VEGF, B16F10; format: cell-based, mouse; conditions: 14,15-EET
LLC tumor cells [6] = experiment: Tumor cell (LLC) migration; format: cell-based, mouse; conditions: 14,15-EEZE
endothelial cells = experiment: Endothelial cell migration; format: cell-based
B16F10 melanoma = experiment: Spontaneous B16F10 metastasis after primary tumor resection; format: in vivo, mouse; conditions: 21 days of treatment post B16F10 resection, 10 mg/kg/day
mice [7] = experiment: Wound healing (ear punch wound assay); format: in vivo, mouse; conditions: systemic TUPS 10 mg/kg/day, day 4, vs vehicle
Excerpt: In one embodiment, a full-thickness wound is effected by removing a section of skin (e.g., 1.5 mm diameter) from the dorsal surface (e.g., back) of an anesthetized animal by e.g., surgical incision. If so desired, the section of skin to be wounded can be pre-treated with a candidate pro-angiogenic factor prior to wound induction by e.g., subcutaneous injection. Alternatively, the wound can be treated using a candidate pro-angiogenic factor coincident with or immediately following wounding using methods known to one of skill in the art. The size, area, rate of healing, contraction and histology of the wound are assessed at different time points by methods known to those of skill in the art. The wound size of an animal is assessed by measuring the unclosed wound area compared to the original wound area. Wound healing can be expressed as either percent wound closure or percent wound closure rate. Wounds can be harvested at different time points by euthanizing the animal and removing a section of skin surrounding the wound site for histological analysis if so desired.
An ear punch model can also be used to assess rates of angiogenesis or wound healing, in a design similar to that for the full thickness dorsal back skin assay. The model consists of wounding the ear of an animal using a circular punch of a standard size (e.g., 2.25 mm). […]

mice [8] = experiment: Lung growth following left pneumonectomy; format: in vivo, mouse; conditions: day 4 post left pneumonectomy, vs vehicle-treated mice, p<0.05
Excerpt: As shown herein, epoxyeicosatrienoic acids (EETs) stimulate angiogenesis, in part via the VEGF signaling network. Since compensated lung growth is dependent on VEGF-induced angiogenesis, it was hypothesized that endothelial cells (ECs) stimulate lung growth via production of EETs. To confirm the effects of CYP2C8 overexpression, EET levels were increased by inhibition of soluble epoxide hydrolase (sEH) following left penumonectomy. […] In contrast, there was no significant change in baseline lung volume/body weight ratio after sham operation.
As shown herein, epoxyeicosatrienoic acids (EETs) stimulate angiogenesis, in part via the VEGF signaling network. Since compensated lung growth is dependent on VEGF-induced angiogenesis, it was hypothesized that endothelial cells (ECs) stimulate lung growth via production of EETs. Transgenic (Tg) mice with EC-specific overexpression of CYP2C8 (Tie2 promoter-driven) were used to study the consequence of increased EETs on lung growth following left pneumonectomy. To confirm the effects of CYP2C8 overexpression, EET levels were increased by inhibition of soluble epoxide hydrolase (sEH). EC-specific overexpression of CYP2C8 promoted contralateral lung growth following unilateral pneumectomy. Lung volume/body weight on day 4 post-pneumonectomy were increased by 23% (p<0.001) in Tg mice compared to WT mice (FIG. 12). […]

[9] = TSP1 null mice, 14,15-EEZE 0.21 mg/mouse

CCCCCC(O)C(O)C/C=C\C/C=C\C/C=C\CCCC(=O)O (centres unmarked) [14,15-DHET]
spontaneous LLC lung metastasis [1]: has no effect relative to control; also recorded: does not stimulate metastasis

CCCCCC1OC1C/C=C\C/C=C\C/C=C\CCCC(=O)O (centres unmarked) [14,15-EET]
liver regeneration (mice [2]): stimulates liver regeneration
increase in liver regeneration (liver/body weight ratio) (mice [2]): 21%
β-galactosidase staining (marker of VEGF production) in tumor endothelium and stromal fibroblasts (VEGF production): show β-galactosidase staining; also recorded: stained positively
VEGF production by LLC tumor cells in vitro (LLC tumor cells [3]): no significant effect
primary LLC tumor growth [4]: significantly accelerated primary LLC tumor growth; also recorded: increases primary LLC tumor growth
increase in the number of surface lung metastases ([1]; WT mice, 14,15-EET via osmotic mini-pumps at time of LLC resection, 12 days after resection, vs vehicle): 3 fold
spontaneous LLC liver, kidney and lymph node metastasis [1]: induction of liver, kidney and distant lymph node metastasis; also recorded: increases spontaneous LLC lung metastasis and distant femoral lymph node metastasis
spontaneous LLC lung metastasis [1]: increases spontaneous lung and distant femoral lymph node metastasis; also recorded: increases spontaneous LLC lung metastasis
increase in endometriosis (mice [5]; WT mice, day 6, vs vehicle): 254%
endometriosis (mice [5]; day 6, percent of lesions established and area of established lesions): endometriosis is stimulated
VEGF production by B16F10 tumor cells in vitro (B16F10 tumor cells): no significant effect

CCCCCC1OC1CCCCCCCC=CCCCC(=O)NS(C)(=O)=O (centres unmarked) [14,15-EEZE-mSI]
14,15-EET-induced spontaneous LLC (lung) metastasis [1]: inhibits lung metastasis induced by 14,15-EET; also recorded: inhibits 14,15-EET- (15 μg/kg/day) induced spontaneous LLC metastasis

CCCCCC1OC1CCCCCCC/C=C\CCCC(=O)O (centres unmarked) [14,15-EEZE]
migration of LLC tumor cells (LLC tumor cells [6]): no significant effect; also recorded: not tumor cell (LLC) migration
primary LLC tumor growth in TSP1 null mice [4, 9]: does not significantly inhibit primary LLC tumor growth
tumor suppression by the EET antagonist [4, 9]: 24%
tumor suppression by the EET antagonist ([4]; WT mice, 14,15-EEZE 0.21 mg/mouse): 62%
primary LLC tumor growth [4]: reduced primary LLC growth; also recorded: inhibits primary LLC growth
14,15-EET-induced spontaneous LLC (lung) metastasis [1]: reduced lung metastasis
14,15-EET-induced macroscopic liver and lymph node metastasis ([1]; EET antagonist co-administered with 14,15-EET following LLC resection): prevented macroscopic liver and lymph node metastasis
survival ([1]; LLC resection metastasis model, 14,15-EEZE 0.21 mg/mouse): prolongs survival
plasma VEGF levels ([1]; spontaneous LLC lung metastasis model, 14,15-EEZE 0.21 mg/mouse): reduces plasma VEGF levels
endothelial cell migration (VEGF-induced), inhibition (endothelial cells; 14,15-EEZE, dose-dependent): inhibited endothelial migration in a dose-dependent fashion; also recorded: inhibits VEGF-induced endothelial cell

CS(=O)(=O)N1CCC(NC(=O)Nc2ccc(OC(F)(F)F)cc2)CC1 [TUPS, 1-(1-methanesulfonyl-piperidin-4-yl)-3-(4-trifluoromethoxy-phenyl)-urea]
liver regeneration (mice [2]): increases liver regeneration
increase in liver regeneration (liver/body weight ratio) (mice [2]): 38%
spontaneous B16F10 axillary lymph node metastasis (B16F10 melanoma): dramatically stimulated; also recorded: increase spontaneous B16F10 axillary lymph node metastasis
spontaneous LLC liver, kidney and lymph node metastasis [1]: induces spontaneous liver metastasis; also recorded: dramatically stimulated; also recorded: increase liver metastasis
spontaneous LLC lung metastasis [1]: dramatically stimulated
wound healing (mice [7]): accelerates wound healing; also recorded: significantly accelerated wound healing
VEGF-mediated endothelial migration (endothelial cells; VEGF-mediated): stimulate VEGF-mediated endothelial migration
basal endothelial migration (endothelial cells; basal, without VEGF): no significant effects
lung growth/body weight (lung regeneration) (mice [8]): increase in lung regeneration; also recorded: stimulated lung growth/body weight
